In patent US10870619B2 (CJ CHEILJEDANG CORPORATION, priority 2016, dated 2020):
Where two headings read alike, the source gives them in different places. Values belong to the molecule of their own block, whether it stands above or below them.

Settings: crystals obtained by the crystallization process of the respective example (pH adjustment, coagulant, pH readjustment, cooling rate vary)
Procedure: As used herein, the term “bulk density” refers to the density measured based on the volume including voids generated between particles when powder is filled into a container. In particular, the density of powder which is measured after treating the powder by tapping a cylinder filled with the powder with a constant force so as to make the powder within the cylinder dense is called tapped bulk density (hereinafter, “BD”).

BD (tapped bulk density) of the obtained L-methionine crystals: 800 g/L | BD (tapped bulk density) of the obtained L-methionine crystals (listed as Ex. 21): 800 g/L
Structure (SMILES): CSCC[C@H](N)C(=O)O [Example 21, L-methionine]

BD (tapped bulk density) of the obtained L-methionine crystals: 700 g/L | BD (tapped bulk density) of the obtained L-methionine crystals (listed as Ex. 22): 700 g/L
Structure (SMILES): CSCC[C@H](N)C(=O)O [Example 22, L-methionine]

BD (tapped bulk density) of the obtained L-methionine crystals: 520 g/L | BD (tapped bulk density) of the obtained L-methionine crystals (listed as Comp. Ex. 2): 520 g/L
Structure (SMILES): CSCC[C@H](N)C(=O)O [Comparative Example 2, L-methionine, reference compound]

BD (tapped bulk density) of the obtained L-methionine crystals: 450 g/L | BD (tapped bulk density) of the obtained L-methionine crystals (listed as Comp. Ex. 8): 450 g/L
Structure (SMILES): CSCC[C@H](N)C(=O)O [Comparative Example 8, L-methionine, reference compound]

BD (tapped bulk density) of the obtained L-methionine crystals: 570 g/L | BD (tapped bulk density) of the obtained L-methionine crystals (listed as Ex. 8): 570 g/L
Structure (SMILES): CSCC[C@H](N)C(=O)O [Example 8, L-methionine]

BD (tapped bulk density) of the obtained L-methionine crystals: 550 g/L | BD (tapped bulk density) of the obtained L-methionine crystals (listed as Ex. 11): 550 g/L
Structure (SMILES): CSCC[C@H](N)C(=O)O [Example 11, L-methionine]

BD (tapped bulk density) of the obtained L-methionine crystals: 510 g/L | BD (tapped bulk density) of the obtained L-methionine crystals (listed as Comp. Ex. 7): 510 g/L
Structure (SMILES): CSCC[C@H](N)C(=O)O [Comparative Example 7, L-methionine, reference compound]

BD (tapped bulk density) of the obtained L-methionine crystals: 350 g/L | BD (tapped bulk density) of the obtained L-methionine crystals (listed as Ex. 2): 350 g/L
Structure (SMILES): CSCC[C@H](N)C(=O)O [Example 2, L-methionine]

BD (tapped bulk density) of the obtained L-methionine crystals: 480 g/L | BD (tapped bulk density) of the obtained L-methionine crystals (listed as Ex. 16): 480 g/L
Structure (SMILES): CSCC[C@H](N)C(=O)O [Example 16, L-methionine]

BD (tapped bulk density) of the obtained L-methionine crystals: 530 g/L | BD (tapped bulk density) of the obtained L-methionine crystals (listed as Ex. 13): 530 g/L
Structure (SMILES): CSCC[C@H](N)C(=O)O [Example 13, L-methionine]

BD (tapped bulk density) of the obtained L-methionine crystals: 580 g/L | BD (tapped bulk density) of the obtained L-methionine crystals (listed as Ex. 10): 580 g/L
Structure (SMILES): CSCC[C@H](N)C(=O)O [Example 10, L-methionine]

BD (tapped bulk density) of the obtained L-methionine crystals: 630 g/L | BD (tapped bulk density) of the obtained L-methionine crystals (listed as Comp. Ex. 10): 630 g/L
Structure (SMILES): CSCC[C@H](N)C(=O)O [Comparative Example 10, L-methionine, reference compound]

BD (tapped bulk density) of the obtained L-methionine crystals: 370 g/L | BD (tapped bulk density) of the obtained L-methionine crystals (listed as Ex. 1): 370 g/L
Structure (SMILES): CSCC[C@H](N)C(=O)O [Example 1, L-methionine]

BD (tapped bulk density) of the obtained L-methionine crystals: 400 g/L | BD (tapped bulk density) of the obtained L-methionine crystals (listed as Comp. Ex. 13): 400 g/L
Structure (SMILES): CSCC[C@H](N)C(=O)O [Comparative Example 13, L-methionine, reference compound]

BD (tapped bulk density) of the obtained L-methionine crystals (listed as Comp. Ex. 11): 410 g/L
Structure (SMILES): CSCC[C@H](N)C(=O)O [Comparative Example 11, L-methionine, reference compound]

BD (tapped bulk density) of the obtained L-methionine crystals: 500 g/L | BD (tapped bulk density) of the obtained L-methionine crystals (listed as Ex. 15): 500 g/L
Structure (SMILES): CSCC[C@H](N)C(=O)O [Example 15, L-methionine]

BD (tapped bulk density) of the obtained L-methionine crystals: 570 g/L | BD (tapped bulk density) of the obtained L-methionine crystals (listed as Ex. 7): 570 g/L
Structure (SMILES): CSCC[C@H](N)C(=O)O [Example 7, L-methionine]

BD (tapped bulk density) of the obtained L-methionine crystals: 590 g/L | BD (tapped bulk density) of the obtained L-methionine crystals (listed as Ex. 4): 590 g/L
Structure (SMILES): CSCC[C@H](N)C(=O)O [Example 4, L-methionine]

BD (tapped bulk density) of the obtained L-methionine crystals: 500 g/L | BD (tapped bulk density) of the obtained L-methionine crystals (listed as Comp. Ex. 4): 500 g/L
Structure (SMILES): CSCC[C@H](N)C(=O)O [Comparative Example 4, L-methionine, reference compound]

BD (tapped bulk density) of the obtained L-methionine crystals: 750 g/L | BD (tapped bulk density) of the obtained L-methionine crystals (listed as Ex. 19): 750 g/L
Structure (SMILES): CSCC[C@H](N)C(=O)O [Example 19, L-methionine]

BD (tapped bulk density) of the obtained L-methionine crystals: 610 g/L | BD (tapped bulk density) of the obtained L-methionine crystals (listed as Ex. 3): 610 g/L
Structure (SMILES): CSCC[C@H](N)C(=O)O [Example 3, L-methionine]

BD (tapped bulk density) of the obtained L-methionine crystals: 760 g/L | BD (tapped bulk density) of the obtained L-methionine crystals (listed as Ex. 20): 760 g/L
Structure (SMILES): CSCC[C@H](N)C(=O)O [Example 20, L-methionine]

BD (tapped bulk density) of the obtained L-methionine crystals: 560 g/L | BD (tapped bulk density) of the obtained L-methionine crystals (listed as Ex. 9): 560 g/L
Structure (SMILES): CSCC[C@H](N)C(=O)O [Example 9, L-methionine]

BD (tapped bulk density) of the obtained L-methionine crystals: 660 g/L | BD (tapped bulk density) of the obtained L-methionine crystals (listed as Comp. Ex. 12): 660 g/L
Structure (SMILES): CSCC[C@H](N)C(=O)O [Comparative Example 12, L-methionine, reference compound]

BD (tapped bulk density) of the obtained L-methionine crystals: 580 g/L | BD (tapped bulk density) of the obtained L-methionine crystals (listed as Ex. 6): 580 g/L
Structure (SMILES): CSCC[C@H](N)C(=O)O [Example 6, L-methionine]

BD (tapped bulk density) of the obtained L-methionine crystals: 190 g/L | BD (tapped bulk density) of the obtained L-methionine crystals (listed as Comp. Ex. 1): 190 g/L
Structure (SMILES): CSCC[C@H](N)C(=O)O [Comparative Example 1, L-methionine, reference compound]

BD (tapped bulk density) of the obtained L-methionine crystals: 560 g/L | BD (tapped bulk density) of the obtained L-methionine crystals (listed as Ex. 12): 560 g/L
Structure (SMILES): CSCC[C@H](N)C(=O)O [Example 12, L-methionine]

BD (tapped bulk density) of the obtained L-methionine crystals: 730 g/L | BD (tapped bulk density) of the obtained L-methionine crystals (listed as Ex. 18): 730 g/L
Structure (SMILES): CSCC[C@H](N)C(=O)O [Example 18, L-methionine]

BD (tapped bulk density) of the obtained L-methionine crystals: 590 g/L | BD (tapped bulk density) of the obtained L-methionine crystals (listed as Ex. 5): 590 g/L
Structure (SMILES): CSCC[C@H](N)C(=O)O [Example 5, L-methionine]

BD (tapped bulk density) of the obtained L-methionine crystals: 460 g/L | BD (tapped bulk density) of the obtained L-methionine crystals (listed as Comp. Ex. 9): 460 g/L
Structure (SMILES): CSCC[C@H](N)C(=O)O [Comparative Example 9, L-methionine, reference compound]

BD (tapped bulk density) of the obtained L-methionine crystals: 450 g/L | BD (tapped bulk density) of the obtained L-methionine crystals (listed as Comp. Ex. 6): 450 g/L
Structure (SMILES): CSCC[C@H](N)C(=O)O [Comparative Example 6, L-methionine, reference compound]

BD (tapped bulk density) of the obtained L-methionine crystals: 490 g/L | BD (tapped bulk density) of the obtained L-methionine crystals (listed as Comp. Ex. 5): 490 g/L
Structure (SMILES): CSCC[C@H](N)C(=O)O [Comparative Example 5, L-methionine, reference compound]

BD (tapped bulk density) of the obtained L-methionine crystals: 690 g/L | BD (tapped bulk density) of the obtained L-methionine crystals (listed as Ex. 17): 690 g/L
Structure (SMILES): CSCC[C@H](N)C(=O)O [Example 17, L-methionine]

BD (tapped bulk density) of the obtained L-methionine crystals: 600 g/L | BD (tapped bulk density) of the obtained L-methionine crystals (listed as Ex. 14): 600 g/L
Structure (SMILES): CSCC[C@H](N)C(=O)O [Example 14, L-methionine]

BD (tapped bulk density) of the obtained L-methionine crystals: 500 g/L | BD (tapped bulk density) of the obtained L-methionine crystals (listed as Comp. Ex. 3): 500 g/L
Structure (SMILES): CSCC[C@H](N)C(=O)O [Comparative Example 3, L-methionine, reference compound]
